Assay results published in patent publication US11459355B2, “Peptides having octopus octopressin activity and use thereof” (NATIONAL MARINE BIODIVERSITY INSTITUTE OF KOREA, priority 2018, dated 2022).

Test system: Octopus minor
Assay: Analysis of bioactivity of octopressin peptide: behavior change of adult Octopus minor after injection
Type: in vivo
Method: Peptides satisfying the octopressin amino acid sequence and modification predicted in Example 4 were ordered and purchased from a peptide synthesizing company and used. A dried peptide powder was dissolved in tertiary distilled water to a concentration of 10 mg/ml, diluted 100 times of artificial seawater filtered through a 0.20 μm filter to prepare an injection solution. A disposable syringe and a 26 gauge needle were used to poke at a 1 cm deep, and the injection solution was administered in the center between the body of the head of the adult Octopus minor. The injection volume was 100 microgram/kg by weight of the Octopus minor. As a control group, Octopus minor without injection (before injection), Octopus minor injected with filtered artificial seawater only, and Octopus minor injected with octopus-derived octopressin were used. […] In addition, these behavior changes began to appear 1 to 5 minutes after injection and lasted for 10 to 20 minutes, and the effect peaked between 5 to 10 minutes after injection and lasted for 10 to 20 minutes. […] Here, the used Octopus minor were discarded without reuse.

CFWTNCPVG (Octopressin_active peptide) [octopressin-activated peptide]
brooding-like behavior after injection (FIG. 6B) (Octopus minor injected with octopressin): behaviors similar to the brooding behaviors
behavior change after injection (repetitive bending and stretching of arms, social behaviors) (adult Octopus minor, injection between body and head, 100 microgram/kg, total of 12 Octopus minors, regardless of sex): had bioactivity
